This data set is described as follows: Stability in C57BL/6J mouse microsomes. It counts as ADME, Microsome.
`C[S+]([O-])c1ccc(C(CC2CCCC2)c2cc3cccnc3[nH]2)cc1Cl` (stereo in doubt; 16a): the Stability turned out to be 50%.

In the case of `C[S+]([O-])c1ccc(C(CC2CCCC2)c2cc3cccnc3[nH]2)cc1Cl` (stereo in doubt; 16c), the Stability is 40%.

For `CS(=O)(=O)c1ccc([C@@H](C[C@H]2CCC(=O)C2)C(=O)Nc2cnccn2)cc1Cl` [PIRAGLIATIN], the Stability is 85%.

The values above are taken from ChEMBL document CHEMBL3763030, “Structure-Activity Relationship of Azaindole-Based Glucokinase Activators” (J Med Chem, 2016).
